Data as given in patent publication US11123337B2, “4-methylsulfonyl-substituted piperidine urea compounds” (MYOKARDIA, INC., priority 2015, dated 2021).

Target: bovine cardiac myosin (Bos taurus, UniProt Q9BE39)
Experiment: Myosin activation assay (PK/LDH-coupled ATPase, bovine cardiac myofibrils)
Type: biochemical
Details: AC20 = concentration at which total response is increased by twenty percent
Procedure, shortened: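 Values are the concentrations raising the ATPase rate by 20% or 50% over DMSO, from 10-point dose responses fitted with four parameters. Rate is NADH loss at 340 nm via PK/LDH coupling, read 15 min at room temperature, in pH 6.8 PIPES with 50 μM ATP. Bovine cardiac myofibrils were held at pCa ~6 or pCa 10.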

Chain of bovine cardiac myosin (Q9BE39 whole entry): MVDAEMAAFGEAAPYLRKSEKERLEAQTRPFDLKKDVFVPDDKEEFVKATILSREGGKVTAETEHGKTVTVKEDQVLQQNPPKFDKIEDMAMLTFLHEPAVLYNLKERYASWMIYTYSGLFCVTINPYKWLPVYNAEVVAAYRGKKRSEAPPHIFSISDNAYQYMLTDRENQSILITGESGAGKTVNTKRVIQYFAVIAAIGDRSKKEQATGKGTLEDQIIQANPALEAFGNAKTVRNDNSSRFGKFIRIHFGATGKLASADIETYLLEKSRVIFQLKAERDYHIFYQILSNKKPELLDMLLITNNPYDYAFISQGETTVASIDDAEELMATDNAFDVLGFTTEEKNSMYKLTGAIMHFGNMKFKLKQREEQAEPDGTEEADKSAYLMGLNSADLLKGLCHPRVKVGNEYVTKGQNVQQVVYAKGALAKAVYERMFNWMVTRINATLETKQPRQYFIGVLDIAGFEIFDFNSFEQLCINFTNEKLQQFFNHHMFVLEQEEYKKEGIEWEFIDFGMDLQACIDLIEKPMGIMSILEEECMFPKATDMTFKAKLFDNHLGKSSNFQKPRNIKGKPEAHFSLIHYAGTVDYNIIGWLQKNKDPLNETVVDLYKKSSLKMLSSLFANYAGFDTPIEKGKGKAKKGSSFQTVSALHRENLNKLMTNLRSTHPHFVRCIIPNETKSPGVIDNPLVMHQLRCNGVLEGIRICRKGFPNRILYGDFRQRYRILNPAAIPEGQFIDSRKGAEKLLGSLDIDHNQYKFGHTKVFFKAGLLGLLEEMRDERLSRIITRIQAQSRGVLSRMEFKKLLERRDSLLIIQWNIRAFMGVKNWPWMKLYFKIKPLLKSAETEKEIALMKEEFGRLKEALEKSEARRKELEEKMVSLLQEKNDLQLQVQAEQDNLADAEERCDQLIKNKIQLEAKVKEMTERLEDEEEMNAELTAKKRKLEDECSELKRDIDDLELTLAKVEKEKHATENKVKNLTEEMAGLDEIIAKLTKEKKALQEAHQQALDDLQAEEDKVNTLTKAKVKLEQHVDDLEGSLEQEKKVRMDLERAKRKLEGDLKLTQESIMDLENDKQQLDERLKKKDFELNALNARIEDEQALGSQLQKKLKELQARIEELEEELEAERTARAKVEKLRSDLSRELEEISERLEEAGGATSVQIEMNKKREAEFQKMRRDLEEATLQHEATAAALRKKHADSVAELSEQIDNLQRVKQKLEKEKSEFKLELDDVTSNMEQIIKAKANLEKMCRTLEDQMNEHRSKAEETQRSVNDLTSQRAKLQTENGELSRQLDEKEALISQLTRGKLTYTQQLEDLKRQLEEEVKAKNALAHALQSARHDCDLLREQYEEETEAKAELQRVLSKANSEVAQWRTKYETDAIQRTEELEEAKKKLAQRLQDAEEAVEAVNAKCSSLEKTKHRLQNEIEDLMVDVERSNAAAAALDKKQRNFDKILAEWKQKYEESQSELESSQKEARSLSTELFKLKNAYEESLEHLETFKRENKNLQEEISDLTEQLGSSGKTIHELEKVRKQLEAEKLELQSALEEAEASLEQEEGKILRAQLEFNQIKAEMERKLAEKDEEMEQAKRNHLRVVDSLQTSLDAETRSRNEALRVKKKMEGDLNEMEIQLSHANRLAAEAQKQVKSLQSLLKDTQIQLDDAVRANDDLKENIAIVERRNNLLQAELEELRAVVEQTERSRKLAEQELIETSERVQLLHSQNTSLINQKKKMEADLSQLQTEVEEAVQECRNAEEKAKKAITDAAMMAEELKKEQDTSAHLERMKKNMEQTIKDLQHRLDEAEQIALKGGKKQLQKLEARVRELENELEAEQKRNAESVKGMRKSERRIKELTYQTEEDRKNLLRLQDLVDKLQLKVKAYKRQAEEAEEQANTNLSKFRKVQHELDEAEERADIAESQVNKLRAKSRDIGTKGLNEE
Chain of bovine cardiac myosin (P85100 whole entry partner): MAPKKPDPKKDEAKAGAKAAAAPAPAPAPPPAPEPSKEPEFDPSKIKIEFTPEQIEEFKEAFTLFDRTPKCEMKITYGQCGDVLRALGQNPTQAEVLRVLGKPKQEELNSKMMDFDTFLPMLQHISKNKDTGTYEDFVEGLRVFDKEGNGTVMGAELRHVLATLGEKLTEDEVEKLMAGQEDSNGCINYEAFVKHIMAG
Chain of bovine cardiac myosin (Q3SZE5 whole entry partner): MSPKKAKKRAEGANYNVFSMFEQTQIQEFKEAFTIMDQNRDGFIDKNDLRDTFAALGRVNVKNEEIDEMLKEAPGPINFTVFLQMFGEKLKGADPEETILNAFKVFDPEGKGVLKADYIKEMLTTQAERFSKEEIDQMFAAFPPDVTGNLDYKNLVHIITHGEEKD

| SMILES | Myosin Activation (AC20) |
| --- | --- |
| O=C(Nc1ccnnc1)N1CCC(C2(S(=O)(=O)c3ccc(OC(F)(F)F)cc3)CC2)CC1 [Compound 205, N-(pyridazin-4-yl)-4-(1-((4-(trifluoromethoxy)phenyl)sulfonyl)cyclopropyl)piperidine-1-carboxamide] | +++ (+++ represents myosin activation value AC20 < 2 μM) |
| N#Cc1ccc(S(=O)(=O)C(F)(F)C2CCN(C(=O)Nc3ccnnc3)CC2)c(Cl)c1 [Compound 76, 4-(((2-chloro-4-cyanophenyl)sulfonyl)difluoromethyl)-N-(pyridazin-4-yl)piperidine-1-carboxamide] | ++ (++ represents myosin activation value AC20 from 2 μM-5 μM) |
| CC(C)(C1CCN(C(=O)Nc2nccs2)CC1)S(=O)(=O)c1cccc(F)c1 [Compound 156, 4-(2-((3-fluorophenyl)sulfonyl)propan-2-yl)-N-(thiazol-2-yl)piperidine-1-carboxamide] | + (+ represents myosin activation value AC20 > 5 μM) |
| Cc1ccccc1S(=O)(=O)C(C)(F)C1CCN(C(=O)Nc2ccnnc2)CC1 (centres unmarked) [Compound 53, 4-(1-fluoro-1-(o-tolylsulfonyl)ethyl)-N-(pyridazin-4-yl)piperidine-1-carboxamide] | +++ (+++ represents myosin activation value AC20 < 2 μM) |
| CC(F)(C1CCN(C(=O)Nc2cnns2)CC1)S(=O)(=O)c1cccc(F)c1 (centres unmarked) [Compound 45, 4-(1-fluoro-1-((3-fluorophenyl)sulfonyl)ethyl)-N-(1,2,3-thiadiazol-5-yl)piperidine-1-carboxamide] | +++ (+++ represents myosin activation value AC20 < 2 μM) |
| CC(C)(C1CCN(C(=O)Nc2ccnnc2)CC1)S(=O)(=O)c1ccn2nccc2c1 [Compound 191, 4-(2-(pyrazolo[1,5-a]pyridin-5-ylsulfonyl)propan-2-yl)-N-(pyridazin-4-yl)piperidine-1-carboxamide] | +++ (+++ represents myosin activation value AC20 < 2 μM) |
| CC(C)(C1CCN(C(=O)Nc2ccns2)CC1)S(=O)(=O)c1cc(F)cc(F)c1 [Compound 210, 4-(2-((3,5-difluorophenyl)sulfonyl)propan-2-yl)-N-(isothiazol-5-yl)piperidine-1-carboxamide] | +++ (+++ represents myosin activation value AC20 < 2 μM) |
| CC(F)(C1CCN(C(=O)Cc2ccnnc2)CC1)S(=O)(=O)c1cccc(F)c1 (centres unmarked) [Compound 10, 1-(4-(1-Fluoro-1-((3-fluorophenyl)sulfonyl)ethyl)piperidin-1-yl)-2-(pyridazin-4-yl)ethan-1-one] | + (+ represents myosin activation value AC20 > 5 μM) |
| CC(C)(C1CCN(C(=O)Nc2ccnnc2)CC1)S(=O)(=O)c1ccc(C(F)(F)F)nc1 [Compound 171, N-(pyridazin-4-yl)-4-(2-((6-(trifluoromethyl)pyridin-3-yl)sulfonyl)propan-2-yl)piperidine-1-carboxamide] | ++ (++ represents myosin activation value AC20 from 2 μM-5 μM) |
| O=C(Nc1ccnnc1)N1CCC(C(F)(F)S(=O)(=O)c2ccc(O)cc2Cl)CC1 [Compound 92, 4-(((2-chloro-4-hydroxyphenyl)sulfonyl)difluoromethyl)-N-(pyridazin-4-yl)piperidine-1-carboxamide] | ++ (++ represents myosin activation value AC20 from 2 μM-5 μM) |
| CC(F)(C1CCN(C(=O)Nc2cnns2)CC1)S(=O)(=O)c1ccc(C#N)cc1 (centres unmarked) [Compound 274, 4-(1-((4-cyanophenyl)sulfonyl)-1-fluoroethyl)-N-(1,2,3-thiadiazol-5-yl)piperidine-1-carboxamide] | +++ (+++ represents myosin activation value AC20 < 2 μM) |
| N#Cc1ccccc1S(=O)(=O)C(F)(F)C1CCN(C(=O)Nc2ccnnc2)CC1 [Compound 54, 4-(((2-cyanophenyl)sulfonyl)difluoromethyl)-N-(pyridazin-4-yl)piperidine-1-carboxamide] | ++ (++ represents myosin activation value AC20 from 2 μM-5 μM) |
| Cc1cc(S(=O)(=O)C(C)(C)C2CCN(C(=O)Nc3ccncc3)CC2)n(C)n1 [Compound 186, 4-(2-((1,3-dimethyl-1H-pyrazol-5-yl)sulfonyl)propan-2-yl)-N-(pyridin-4-yl)piperidine-1-carboxamide] | +++ (+++ represents myosin activation value AC20 < 2 μM) |
| CC(F)(C1CCN(C(=O)Nc2ccon2)CC1)S(=O)(=O)c1cccc(F)c1 (centres unmarked) [Compound 234, 4-(1-fluoro-1-((3-fluorophenyl)sulfonyl)ethyl)-N-(isoxazol-3-yl)piperidine-1-carboxamide] | +++ (+++ represents myosin activation value AC20 < 2 μM) |
| Cc1cc(OC(F)(F)F)ccc1S(=O)(=O)C(F)(F)C1CCN(C(=O)Nc2ccnnc2)CC1 [Compound 73, 4-(difluoro((2-methyl-4-(trifluoromethoxy)phenyl)sulfonyl)methyl)-N-(pyridazin-4-yl)piperidine-1-carboxamide] | ++ (++ represents myosin activation value AC20 from 2 μM-5 μM) |
| Cn1nccc1S(=O)(=O)C(C)(F)C1CCN(C(=O)Nc2ccc(F)nc2)CC1 (centres unmarked) [Compound 228, 4-(1-fluoro-1-((1-methyl-1H-pyrazol-5-yl)sulfonyl)ethyl)-N-(6-fluoropyridin-3-yl)piperidine-1-carboxamide] | ++ (++ represents myosin activation value AC20 from 2 μM-5 μM) |
| CC(C)(C1CCN(C(=O)Nc2cccnc2)CC1)S(=O)(=O)c1cccc(F)c1 [Compound 133, 4-(2-((3-fluorophenyl)sulfonyl)propan-2-yl)-N-(pyridin-3-yl)piperidine-1-carboxamide] | ++ (++ represents myosin activation value AC20 from 2 μM-5 μM) |
| Cn1nccc1S(=O)(=O)C(C)(C)C1CCN(C(=O)Nc2ccon2)CC1 [Compound 128, N-(isoxazol-3-yl)-4-(2-((1-methyl-1H-pyrazol-5-yl)sulfonyl)propan-2-yl)piperidine-1-carboxamide] | ++ (++ represents myosin activation value AC20 from 2 μM-5 μM) |
| O=C(Nc1ccnnc1)N1CCC(C(F)(F)S(=O)(=O)c2ccc3ccnn3c2)CC1 [Compound 91, 4-(difluoro(pyrazolo[1,5-a]pyridin-6-ylsulfonyl)methyl)-N-(pyridazin-4-yl)piperidine-1-carboxamide] | ++ (++ represents myosin activation value AC20 from 2 μM-5 μM) |
| CC(C)(C1CCN(C(=O)Nc2ccncc2F)CC1)S(=O)(=O)c1cccc(F)c1 [Compound 177, 4-(2-((3-fluorophenyl)sulfonyl)propan-2-yl)-N-(3-fluoropyridin-4-yl)piperidine-1-carboxamide] | + (+ represents myosin activation value AC20 > 5 μM) |
| CC(F)(C1CCN(C(=O)Nc2ccnnc2)CC1)S(=O)(=O)c1cccc(C#N)c1 (centres unmarked) [Compound 265, 4-(1-((3-cyanophenyl)sulfonyl)-1-fluoroethyl)-N-(pyridazin-4-yl)piperidine-1-carboxamide] | +++ (+++ represents myosin activation value AC20 < 2 μM) |
| CC(F)(C1CCN(C(=O)Nc2ccnnc2)CC1)S(=O)(=O)c1ccc(C(F)(F)F)nc1 (centres unmarked) [Compound 262, 4-(1-fluoro-1-((6-(trifluoromethyl)pyridin-3-yl)sulfonyl)ethyl)-N-(pyridazin-4-yl)piperidine-1-carboxamide] | +++ (+++ represents myosin activation value AC20 < 2 μM) |
| O=C(Nc1ccnnc1)N1CCC(C(F)(F)S(=O)(=O)c2ccccc2-n2cccn2)CC1 [Compound 95, 4-(((2-(1H-pyrazol-1-yl)phenyl)sulfonyl)difluoromethyl)-N-(pyridazin-4-yl)piperidine-1-carboxamide] | + (+ represents myosin activation value AC20 > 5 μM) |
| CC(C)(C1CCN(C(=O)Nc2ccnnc2)CC1)S(=O)(=O)c1ccc(C#N)cc1 [Compound 180, 4-(2-((4-cyanophenyl)sulfonyl)propan-2-yl)-N-(pyridazin-4-yl)piperidine-1-carboxamide] | ++ (++ represents myosin activation value AC20 from 2 μM-5 μM) |
| CC(F)(C1CCN(C(=O)Nc2ccnnc2)CC1)S(=O)(=O)c1ccc(OC(F)F)nc1 (centres unmarked) [Compound 14, 4-(1-((6-(Difluoromethoxy)pyridin-3-yl)sulfonyl)-1-fluoroethyl)-N-(pyridazin-4-yl)piperidine-1-carboxamide] | +++ (+++ represents myosin activation value AC20 < 2 μM) |
| CC(C)(C1CCN(C(=O)Nc2ccnnc2)CC1)S(=O)(=O)c1ccc(C(F)(F)F)cc1 [Compound 181, N-(pyridazin-4-yl)-4-(2-((4-(trifluoromethyl)phenyl)sulfonyl)propan-2-yl)piperidine-1-carboxamide] | ++ (++ represents myosin activation value AC20 from 2 μM-5 μM) |
| O=C(Nc1ccnnc1)N1CCC(C2(S(=O)(=O)c3cc(F)cc(F)c3)CCC2)CC1 [Compound 167, 4-(1-((3,5-difluorophenyl)sulfonyl)cyclobutyl)-N-(pyridazin-4-yl)piperidine-1-carboxamide] | +++ (+++ represents myosin activation value AC20 < 2 μM) |
| O=C(Nc1ccnnc1)N1CCC(C(F)(F)S(=O)(=O)c2ccc(C(F)(F)F)c(F)c2)CC1 [Compound 69, 4-(difluoro((3-fluoro-4-(trifluoromethyl)phenyl)sulfonyl)methyl)-N-(pyridazin-4-yl)piperidine-1-carboxamide] | ++ (++ represents myosin activation value AC20 from 2 μM-5 μM) |
| CC(C)(C1CCN(C(=O)Nc2ccnnc2)CC1)S(=O)(=O)c1cc(F)cc(F)c1 [Compound 169, 4-(2-((3,5-difluorophenyl)sulfonyl)propan-2-yl)-N-(pyridazin-4-yl)piperidine-1-carboxamide] | +++ (+++ represents myosin activation value AC20 < 2 μM) |
